# Measured values taken from patent US20110124690A1, “COMPOSITIONS AND METHODS FOR TREATING CANCER OR A NEUROTROPHIC DISORDER” (priority 2007, published 2011).
# Where two headings read alike, the source gives them in different places.
# Legend:
# [1] = test system: CCRF-CEM/VBL (vinblastine-resistant) cells; assay: XTT microculture cytotoxicity assay, vinblastine-resistant CCRF-CEM/VBL cells; type: cell-based, human; conditions: for IC50: Homo sapiens, CCRF-CEM
# Experimental: (§2) CCRF-CEM human T-cell acute lymphoblastic leukemia cells and the corresponding vinblastine-resistant cells (CCRF-CEM/VBL100) were cultured at an initial density of 5×10^4 cells per milliliter. The cultured cells were then maintained in a 5% CO2-humidified atmosphere at 37° C. in RPMI medium 1640 (GIBCO/BRL) containing penicillin (100 units/mL), streptomycin (100 μg/mL, GIBCO/BRL), and 10% heat-inactivated fetal bovine serum. The cytotoxicity of each Panaxytriol Compound was measured using the 2,3-bis(2-methoxy-4-nitro-5-sulfophenyl)-5-[(phenylamino)carbonyl]-2H-tetrazolium hydroxide (XTT) microculture method as described in Scudiero et al., Cancer Res., 48:4827 (1988).
# CCRF-CEM/Taxol cells = assay: XTT microculture cytotoxicity assay, Taxol-resistant CCRF-CEM/Taxol cells; type: cell-based, human; conditions: Table 3A
# Experimental: as §2
# [2] = test system: CCRF-CEM human T-cell acute lymphoblastic leukemia cells; assay: XTT microculture cytotoxicity assay, CCRF-CEM cells; type: cell-based
# Experimental: as §2
# [3] = test system: human mammary carcinoma xenograft MX-1; assay: Therapeutic effect in nude mice bearing MX-1 xenograft; type: in vivo; conditions: slow i.v. infusion; for Tumor growth at elevated dosage levels: elevated dosages
# Experimental: (§1) Nude mice having human mammary carcinoma xenograft MX-1 were treated with panaxytriol or Compound (A) at various dosages through the slow i.v. infusion protocol by Chou et al. (Chou, T. C., et al, Proc. Natl. Acad. Sci. U.S.A. 95: 15798 (1998)).
# [4] = Body weight of treated nude mice bearing MX-1 xenograft; type: in vivo; conditions: highest dosage levels (100 mg/kg)
# Experimental: as §1
# [5] = 72 h, Table 3, XTT assay, 72-hour inhibition, vinblastine-resistant cells
# [6] = 72 h, Table 3, XTT assay, 72-hour inhibition, read-out: IC50 (μM) CCRF-CEM
smiles,measurement,setting,value
C=C[C@H](O)C#CC#CC[C@H]1OC(C)(C)O[C@@H]1CCCCCCC [Compound (D)],"Fold resistance, CCRF-CEM/VBL vs parent CCRF-CEM (fold increase in IC50)",[1]; Table 3A,[1.98-fold
same,"Fold resistance, CCRF-CEM/Taxol vs parent CCRF-CEM (fold increase in IC50)",CCRF-CEM/Taxol cells,[2.17-fold
C=C[C@H](C#CC#CC[C@H]1OC(C)(C)O[C@@H]1CCCCCCC)OC(=O)/C=C/c1ccccc1 [Compound (E)],IC50,"[2]; Table 3B, read-out: IC50 (in μM) for human leukemic lymphoblastic leukemia cells CCRF-CEM",6.51 µM
C=C[C@@H](O)C#CC#CC[C@H]1OC(C)(C)O[C@@H]1CCCCCCC [Compound A],IC50,[1]; [5],2.41 ± 0.05 µM
same,IC50,"[1]; Table 3A, compound stored in DMSO at below approximately −20° C. for 4 years and 4 months",6.82 µM
same,"Fold resistance, CCRF-CEM/VBL vs parent CCRF-CEM (fold increase in IC50)",[1]; Table 3A,[1.4-fold
same,IC50,"CCRF-CEM/Taxol cells; Homo sapiens, CCRF-CEM, compound stored in DMSO at below approximately −20° C. for 4 years and 4 months",17.2 µM
same,IC50,[2]; [6],1.98 ± 0.2 µM
same,IC50,"[2]; Table 3A, compound stored in DMSO at below approximately −20° C. for 4 years and 4 months, read-out: IC50 (μM) CCRF-CEM",6.15 µM
same,Tumor growth at elevated dosage levels,[3],enhanced tumor-growth suppression
same,Reduction in tumor mass,[3]; including elevated dosages,did not lead to a reduction in the tumor mass
same,Tumor growth,"[3]; levels as low as 10 mg/kg, FIG. 2",inhibiting tumor growth
C=CC(=O)C#CC#CC[C@@H](O)[C@H](O)CCCCCCC [Compound B],"Fold resistance (IC50 CCRF-CEM/VBL vs CCRF-CEM), in parentheses",[1]; Table 3,1.40 x
C=CC(=O)C#CC#CC[C@H]1OC(C)(C)O[C@@H]1CCCCCCC [Compound C],IC50,[1]; [5],3.84 ± 0.08 µM
same,IC50,[2]; [6],3.23 ± 0.78 µM
"CC[C@]1(O)C[C@@H]2CN(CCc3c([nH]c4ccccc34)[C@@](C(=O)OC)(c3cc4c(cc3OC)N(C)[C@H]3[C@@](O)(C(=O)OC)[C@H](OC(C)=O)[C@]5(CC)C=CCN6CC[C@]43[C@@H]65)C2)C1 [Vinblastine, reference compound]",IC50,[1]; [5],0.8 µM
same,IC50,[2]; [6],0.002 µM
C=C[C@@H](O)C#CC#CC[C@@H](O)[C@H](O)CCCCCCC [panaxytriol],"Fold resistance (IC50 CCRF-CEM/VBL vs CCRF-CEM), in parentheses",[1]; Table 3,1.20 x
same,Body weight,[4],no body weight decrease
same,Reduction in tumor mass,"[3]; 30 mg/kg, FIG. 1",no significant reduction in tumor mass
same,Tumor growth,"[3]; 30 mg/kg, FIG. 1",some suppression of tumor growth
same,Tumor growth at elevated dosage levels,[3],improved inhibitory effects
